This is an account of results in US7547729B2, “1,3-diphenylprop-2-en-1-one derivative compounds, preparation method thereof and uses of same” (Genfit, priority 2004, dated 2009).

In one experiment the test system is LDL. As to the kind of experiment: Protection against LDL oxidation by copper (conjugated diene formation). The experiment is classed as biochemical. The conditions noted are these: for rate of diene formation: FIG. 2b, copper alone 2.2; for rate of LDL oxidation: FIG. 8b, absence of compounds 2.5; for kinetics of LDL oxidation (lag phase): FIG. 5a, no control value printed; for LDL oxidation rate: FIG. 5b, absence of compounds 2. Here is the method: Unless otherwise indicated, the reagents were from Sigma (St Quentin, France). LDL were prepared according to the method described by Lebeau et al. (Lebeau, Furman et al. 2000).
The solutions of test compounds were prepared at 10^−2 M concentration in bicarbonate buffer (pH 9) and diluted in PBS to obtain final concentrations ranging from 0.1 to 100 μM
Prior to oxidation, EDTA was removed from the LDL preparation by dialysis. Oxidation then took place at 30° C. by adding 100 μl of 16.6 μM CuSO4 solution to 160 μL of LDL (125 μg protein/ml) and 20 μl of a test compound solution. The formation of dienes, the species under observation, was followed by measuring optical density at 232 nm in the samples treated with the compounds in the presence or absence of copper. Optical density at 232 nm was measured every 10 minutes for 8 hours in a thermostated spectrophotometer (Tecan Ultra 380). The analyses were performed in triplicate. The compounds were considered to have antioxidant activity when they induced a longer lag phase and reduced the rate of oxidation and the amount of dienes formed in comparison with the control sample.

The next experiment addresses T1, PPARα (Homo sapiens, UniProt Q07869).
T1 construct: expressed in transfected cells; host or cells: COS-7 cells
T1 sequence (Q07869 239-466 limits assumed): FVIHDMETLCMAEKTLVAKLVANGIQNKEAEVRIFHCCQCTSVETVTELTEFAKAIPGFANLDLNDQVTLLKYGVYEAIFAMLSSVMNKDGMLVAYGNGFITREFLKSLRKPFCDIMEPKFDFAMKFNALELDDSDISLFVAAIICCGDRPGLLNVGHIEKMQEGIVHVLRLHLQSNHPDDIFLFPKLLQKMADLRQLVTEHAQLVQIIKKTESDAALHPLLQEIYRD
As to the kind of experiment: PPARα/Gal4 transactivation system in COS-7 cells. Format: cell-based. As to conditions: 24 hours. The procedure: (§1) COS-7 cells were incubated with different concentrations of the inventive compounds for 24 hours. The results are expressed as the induction factor (ratio of luminescent signal obtained with the compound and that observed without the compound) after the different treatments.
(§2) PPAR activation was tested in vitro in RK13 epitheloid or COS-7 cell lines by measuring the transcriptional activity of chimeras composed of the DNA binding domain of the yeast gal4 transcription factor and the ligand binding domain of the different PPARs. These latter results were then confirmed in cell lines according to the following protocols:
(§3) RK13 cells were from ECACC (Porton Down, UK), COS-7 cells were from the ATCC (American Type Culture Collection) and were grown in DMEM medium supplemented with 10% (VN) fetal calf serum, 100 U/ml penicillin (Gibco, Paisley, UK) and 2 mM L-glutamine (Gibco, Paisley, UK). The culture medium was changed every two days. Cells were kept at 37° C. in a humidified 95% air/5% CO2 atmosphere.
(§4) The plasmids pG5TkpGL3, pRL-CMV, pGal4-hPPARα, pGal4-hPPARγ, pGal4-hPPARδ and pGal4-φ have been described by Raspe, Madsen et al. (1999). The pGal4-mPPARα, pGal4-hPPARγ and pGal4-hPPARδ constructs were obtained by cloning into the pGal4-φ vector of PCR-amplified DNA fragments corresponding to the DEF domains of the human PPARα, PPARγ and PPARδ nuclear receptors.
(§5) RK13 cells were seeded in 24-well culture dishes at 5×10^4 cells/well, COS-7 cells in 96-well culture dishes at 5×10^4 cells/well and transfected for 2 hours with the reporter plasmid pG5TkpGL3 (50 ng/well), the expression vectors pGal4-φ, pGal4-mPPARα, pGal4-hPPARα, pGal4-hPPARγ, pGal4-hPPARδ (100 ng/well) and the transfection efficiency control vector pRL-CMV (1 ng/well) according to the previously described protocol (Raspe, Madsen et al. 1999), then incubated for 36 hours with the test compounds. At the end of the experiment, the cells were lysed (Gibco, Paisley, UK) and luciferase activity was determined with a Dual-Luciferase™ Reporter Assay System kit (Promega, Madison, Wis., USA) for RK13 cells and Steady Glow Luciferase (Promega) for COS-7 cells according to the supplier's instructions as previously described. The protein content of the cell extracts was then measured with the Bio-Rad Protein Assay (Bio-Rad, Munich, Germany) as directed by the supplier.

For a further experiment, the target named is T2, PPARγ (Homo sapiens, UniProt P37231).
T2 construct: expressed in transfected cells; host or cells: COS-7 cells
T2 sequence (P37231 238-503 limits assumed): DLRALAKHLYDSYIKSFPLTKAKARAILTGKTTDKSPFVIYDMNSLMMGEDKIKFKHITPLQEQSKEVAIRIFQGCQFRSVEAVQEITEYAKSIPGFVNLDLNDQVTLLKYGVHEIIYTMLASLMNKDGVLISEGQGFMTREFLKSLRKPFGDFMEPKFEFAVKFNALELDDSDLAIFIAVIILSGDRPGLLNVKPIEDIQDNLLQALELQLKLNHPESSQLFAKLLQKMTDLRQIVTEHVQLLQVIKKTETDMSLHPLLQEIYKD
As to the kind of experiment: PPARγ/Gal4 transactivation system in COS-7 cells. Format: cell-based. As to conditions: 24 hours. Here is the method: as §1, §2, §3, §4, §5

Where [1] appears, read: FIG. 2a, 10^−4M, copper alone 132 minutes.
[2] abbreviates: FIG. 2c, 10^−4M, copper alone 511.
Where [3] appears, read: FIG. 8a, 10^−4M, absence of compounds 67.3 minutes.
Setting [4] is: FIG. 5c, 10^−4M, absence of compounds 386.
[5] abbreviates: FIG. 7a, 10^−4M, absence of compounds 67.3 minutes.

Compound `Cc1cc(/C=C/C(=O)c2ccc(OCCCCCC3CCSS3)cc2)cc(C)c1OC(C)(C)C(=O)O` (racemic) [compound 6, 1-(4-((R,S)-5-[1,2]dithiolan-3-ylpentyloxy)phenyl)-3-(4-carboxydimethylmethyloxy-3,5-dimethylphenyl)prop-2-en-1-one] showed a lag phase in the experiment with LDL (setting [1]) of 205 min. In the experiment with LDL (10^−4M), the “rate of diene formation” value worked out at 1.7 nmol/min/mg. In addition, in the experiment with LDL (setting [2]), the “total amount of dienes formed” value was determined as 443 nmol/mg. Besides, the Induction factor was 5.48 on PPARα (1 μM), 7.01 at PPARα (10 μM), 4.12 on PPARγ (1 μM) and 6.83 at PPARγ (10 μM).

In the experiment on LDL (setting [1]), `Cc1cc(C(=O)/C=C/c2cc(C)c(OC(C)(C)C(=O)O)c(C)c2)cc(C)c1O` [compound 4, 1-(4-Hydroxy-3,5-dimethylphenyl)-3-(4-carboxydimethylmethyloxy-3,5-dimethylphenyl)prop-2-ene-1-one] had a lag phase of 401 min. Also, the “rate of diene formation” value in the experiment on LDL (10^−4M) is listed as 0.2 nmol/min/mg. The “total amount of dienes formed” value in the experiment on LDL (setting [2]) is 138 nmol/mg. Further, the Induction factor on PPARα (1 μM) amounted to 1.67; on PPARα (10 μM) it was 9.92; on PPARγ (1 μM), 2.00; at PPARγ (10 μM) it was 5.82.

As to `Cc1cc(/C=C/C(=O)c2ccc(OCCC3CCCCC3)cc2)cc(C)c1OC(C)(C)C(=O)O` [compound 11, 1-(4-Cyclohexylethyloxyphenyl)-3-(4-carboxydimethylmethyloxy-3,5-dimethylphenyl)prop-2-en-1-one], the “lag phase (maximum)” value with LDL (FIG. 3a, 3.3×10^−5M, absence of compound 87.2 minutes) worked out at 210 min. This compound also gave a lag phase in the experiment with LDL (FIG. 3a, 10^−6 M, absence of compound 87.2 minutes) of 101.5 min.

In the experiment on LDL (setting [3]), `COc1c(C)cc(C(=O)/C=C/c2cc(C)c(OC(C)(C)C(=O)O)c(C)c2)cc1C` [compound 17, 1-(4-Methoxy-3,5-dimethylphenyl)-3-(4-carboxydimethylmethyloxy-3,5-dimethylphenyl)prop-2-en-1-one] yielded a lag phase of 148 min. In the experiment on LDL (10^−4M), the “rate of LDL oxidation” value turned out to be 1.8 nmol/min/mg.

Turning to `CCCCCCOc1c(C)cc(C(=O)/C=C/c2cc(C)c(OC(C)(C)C(=O)O)c(C)c2)cc1C` [compound 19, 1-(4-Hexyloxy-3,5-dimethylphenyl)-3-(4-carboxydimethylmethyloxy-3,5-dimethylphenyl)prop-2-en-1-one], in the experiment with LDL (FIG. 4a, 10^−4M, copper alone 61 minutes), the lag phase is 92.5 min. Moreover, the diene formation rate in the experiment on LDL (FIG. 4b, 10^−4M, absence of compounds 1.9) is 1.6 nmol/min/mg of LDL. The “total amount of dienes formed” value in the experiment on LDL (FIG. 4c, 10^−4M, absence of compound 370.9) is reported as 346.6 nmol/mg of LDL.

In the case of `Cc1cc(C)c(C(=O)/C=C/c2cc(C)c(OC(C)(C)C(=O)O)c(C)c2)cc1C` [compound 25, 1-(2,4,5-Trimethylphenyl)-3-(4-carboxydimethylmethyloxy-3,5-dimethylphenyl)prop-2-en-1-one], in the experiment on LDL (10^−4M), the “kinetics of LDL oxidation (lag phase)” value was found to be 87.6 min and the LDL oxidation rate was 1.6 nmol/min/mg. For the same compound, the “total amount of dienes formed” value with LDL (setting [4]) came out at 365 nmol/mg.

With `Cc1cc(C(=O)/C=C/c2cc(C)c(OC(C)(C)C(=O)O)c(C)c2)cc(C)c1OCCSC1CCCCC1` [compound 27, 1-(4-Cyclohexylthioethyloxy-3,5-dimethylphenyl)-3-(4-carboxydimethylmethyloxy-3,5-dimethylphenyl)prop-2-en-1-one], in the experiment on LDL (10^−4M), the “kinetics of LDL oxidation (lag phase)” value is 170.8 min and the LDL oxidation rate is on record as 0.8 nmol/min/mg. Further, the “total amount of dienes formed” value with LDL (setting [4]) is 374 nmol/mg.

Consider `COc1ccc(C(=O)/C=C/c2cc(C)c(OC(C)(C)C(=O)O)c(C)c2)cc1F` [compound 35, 1-(4-Methoxy-3-fluorophenyl)-3-(4-carboxydimethylmethyloxy-3,5-dimethylphenyl)prop-2-en-1-one], for which the Induction factor was found to be 1.41 on PPARα (0.003 μM); 1.54 on PPARα (0.01 μM); 2.53 at PPARα (0.03 μM); 7.47 on PPARα (0.1 μM); 15.51 on PPARα (0.3 μM); 24.33 at PPARα (1 μM). For the same compound, the Induction factor was 23.70 at PPARα (3 μM) and 21.03 at PPARα (10 μM).

Turning to `COc1ccc(C(=O)/C=C/c2cc(C)c(OC(C)(C)C(=O)O)c(C)c2)cc1C` [compound 37, 1-(4-Methoxy-3-methylphenyl)-3-(4-carboxydimethylmethyloxy-3,5-dimethylphenyl)prop-2-en-1-one], in the experiment on LDL (FIG. 6a, 10^−4M, absence of compound 56 minutes), the lag phase is 106 min. For the same compound, in the experiment with LDL (FIG. 6b, 10^−4M, absence of compound 2), the oxidation rate is given as 1.8 nmol/min/mg of LDL. For the same compound, the “total amount of dienes formed” value with LDL (FIG. 6c, 10^−4M, absence of compound 360.0) is given as 326.9 nmol/mg of LDL. Further, the Induction factor at PPARα (0.01 μM) turned out to be 1.54; at PPARα (0.03 μM), 2.54; on PPARα (0.1 μM) it was 7.89; at PPARα (0.3 μM) it was 17.25; on PPARα (1 μM), 19.77; on PPARα (3 μM) it was 16.89.

In the experiment on LDL (setting [5]), `COc1ccc(OC)c(C(=O)/C=C/c2cc(C)c(OC(C)(C)C(=O)O)c(C)c2)c1` [compound 41, 1-(2,5-Dimethoxyphenyl)-3-(4-carboxydimethylmethyloxy-3,5-dimethylphenyl)prop-2-en-1-one] came in with a lag phase of 100 min. Further, in the experiment on LDL (FIG. 7c, 10^−4M, absence of compounds 432.5), the “total amount of dienes formed” value is recorded as 403 nmol/mg of LDL.

In the experiment on LDL (setting [3]), `Cc1cc(C(=O)/C=C/c2cc(C)c(OC(C)(C)C(=O)O)c(C)c2)cc(C)c1OCCN1CCOCC1` [compound 43, 1-(3,5-Dimethyl-4-(morpholin-4-ylethyloxy)phenyl)-3-(4-carboxydimethylmethyloxy-3,5-dimethylphenyl)prop-2-en-1-one] returned a lag phase of 97 min. Besides, the “rate of LDL oxidation” value with LDL (10^−4M) was 2.2 nmol/min/mg.

Take `COc1ccc(C(=O)/C=C/c2cc(C)c(OC(C)(C)C(=O)O)c(C)c2)cc1C(F)(F)F` [compound 47, 1-(4-Methoxy-3-trifluoromethylphenyl)-3-(4-carboxydimethylmethyloxy-3,5-dimethylphenyl)prop-2-en-1-one]: the lag phase in the experiment with LDL (setting [5]) is 126.5 min.
